The record followed here is ChEMBL document CHEMBL5226355, “Design and Synthesis of Indenoisoquinolines Targeting Topoisomerase I and Other Biological Macromolecules for Cancer Chemotherapy” (J Med Chem, 2021).

The test system of assay [1] is Leishmania infantum. Kind of assay: Antileishmanial activity against Leishmania infantum promastigotes BCN150. Type of assay: functional, organism-based.
Assay [2] has as its system Leishmania infantum. Nature of the assay: Antileishmanial activity against Leishmania infantum promastigote infected in BALB/c mouse assessed as reduction in parasite burden in spleen at 2.5 mg/kg, iv administered once every other day for 15 days. Type of assay: functional. The conditions noted are these: time 15 day. On the set-up: scale not given: the % may be the effect or the level left.

Assay [3] has as its system Leishmania infantum. Kind of assay: Antileishmanial activity against Leishmania infantum promastigote infected in BALB/c mouse assessed as reduction in parasite burden in liver at 2.5 mg/kg, iv administered once every other day for 15 days. Type of assay: functional. On the set-up: scale not given: the % may be the effect or the level left. The conditions noted are these: time 15 day.

The subject of assay [4] is KB. Nature of the assay: Cytotoxicity against human KB cells. Type of assay: functional, cell-based.
For assay [5], the system named is KB. Nature of the assay: Cytotoxicity against FR-knockdown human KB cells. Type of assay: functional, cell-based.

By IC50 is commonly meant the concentration at which inhibition is half-maximal. Compound `NC[C@@H]1O[C@H](O[C@H]2[C@@H](O)[C@H](O[C@@H]3[C@@H](O)[C@H](N)C[C@H](N)[C@H]3O[C@H]3O[C@H](CO)[C@@H](O)[C@H](O)[C@H]3N)O[C@@H]2CO)[C@H](N)[C@@H](O)[C@@H]1O` [PAROMOMYCIN] came in with an IC50 in assay [1] of 42.4 µM.

In turn, `COc1cc2c3c(n(CCCN4CCOCC4)c(=O)c2cc1OC)-c1cc2c(cc1C3=O)OCO2` [INDOTECAN] had an IC50 in assay [1] of 0.1 µM.

Compound `CC[C@@]1(O)C(=O)OCc2c1cc1n(c2=O)Cc2cc3ccccc3nc2-1` [CAMPTOTHECIN] came in with a concentration for half-maximal inhibition (IC50) in assay [1] of 1.12 µM.

For `O=C1c2ccccc2-c2c1c1ccc([N+](=O)[O-])cc1c(=O)n2CCCN1CCOCC1`, the Activity in assay [2] and in assay [3] was over 80% each time.

In the case of `CCOC(c1ccc(COCC(=O)NCCOCCOCCOCCOCCOCCNC(=O)CC[C@H](NC(=O)c2ccc(NCc3cnc4nc(N)nc(O)c4n3)cc2)C(=O)O)cc1OC)n1cnc(CCn2c3c(c4ccccc4c2=O)C(=O)c2ccccc2-3)c1` (some centres not stated), the IC50 in assay [4] was 60 µM; in assay [5] it was 655 µM.
